# Test results reported in US12653858B2, “Herbal composition, preparation method thereof and method for preventing or treating respiratory disorder by administering the same” (priority 2021, dated 2026).
# Columns and labels:
# ACE2 = ACE2 degradation in WI-38 cells (cycloheximide time course, BafA1 lysosome inhibition); type: cell-based, human; conditions: WI-38 cells pretreated with BafA1 10 μM 30 min, then JGF 10 μg/mL 2 h
# Experimental: Actin was used as the internal control. […] Actin was used as the internal control.
# For example, it was examined whether JGF-induced ACE2 degradation is dependent on proteasome or lysosomal systems. Initially, the half-life of ACE2 in WI-38 cells was analyzed following treatment with cycloheximide (CHX), which is a ribosome inhibitor that blocks protein synthesis.
# [1] = tested on: SARS-CoV-2 S-mediated membrane fusion; test: SARS-CoV-2 spike-mediated cell-cell fusion (syncytium formation) assay; type: cell-based
SMILES,ACE2 level after JGF treatment with lysosome inhibitor (ACE2),Formation of syncytium [1]
CO/C1=C\C(C)=C\[C@@H](C)[C@@H](O)[C@@H](C)C/C(C)=C/C=C/[C@H](OC)[C@@H]([C@@H](C)[C@@H](O)[C@H](C)[C@@]2(O)C[C@@H](O)[C@H](C)[C@@H](C(C)C)O2)OC1=O [BafA1],recovered the ACE2 level,–
CN(C)C(=O)COC(=O)Cc1ccc(OC(=O)c2ccc(NC(=N)N)cc2)cc1 [camostat],–,inhibition of syncytium formation
